Our source for the Activity and IC50 values is ChEMBL document CHEMBL1141809, “Antioxidative phenolic glycosides from sage (Salvia officinalis)” (J Nat Prod, 1999).

Assay [1] can be described thus: Antioxidant activity assessed as trolox equivalent of ABTS radical scavenging activity in aqueous phase by metmyoglobin assay. Type of assay: functional.
For assay [2], the system named is Radical scavenging activity. As to the kind of experiment: Antioxidant activity assessed as DPPH radical scavenging activity after 0.5 hrs. The assay is classed as functional. (In general: Loss of DPPH colour is used to gauge radical scavenging.)

The structures appear in SMILES notation.

Consider `O=C(/C=C/c1ccc(O)c(O)c1)O[C@H]1O[C@@H](CO[C@H]2OC[C@@](O)(CO)[C@@H]2O)[C@H](O)[C@@H](O)[C@@H]1O`, for which, in assay [1], the Activity amounted to 3.86. Besides, the IC50 in assay [2] came out at 19.8 µM.

Regarding `O=C(/C=C/c1ccc(O)c(O)c1)OC[C@H]1O[C@H](O[C@]2(CO)O[C@H](CO)[C@@H](O)[C@@H]2O)[C@H](O)[C@@H](O)[C@@H]1O`, the Activity in assay [1] worked out at 3.7. For the same compound, the IC50 in assay [2] is 20.1 µM.

By IC50 is commonly meant the concentration at which inhibition is half-maximal.
